Reference: the NIST ThermoML archive (doi:10.1021/je900414p)
Numbers after ± are expanded uncertainties.

Assay: xn = mol fraction of the nth substance listed
Conditions: 333.15 K, Liquid

## CCOS(=O)(=O)[O-].CCn1cc[n+](C)c1 [1-ethyl-3-methylimidazolium ethyl sulfate] + CCO
100 kPa, x1 = 0.05056
  mass density: 826.91 ± 0.71 kg/m3
100 kPa, x1 = 0.103
  mass density: 885.77 ± 0.62 kg/m3
100 kPa, x1 = 0.1247
  mass density: 907.28 ± 0.58 kg/m3
100 kPa, x1 = 0.2126
  mass density: 977.1 ± 0.5 kg/m3
100 kPa, x1 = 0.2919
  mass density: 1026.55 ± 0.48 kg/m3
100 kPa, x1 = 0.3185
  mass density: 1039.85 ± 0.49 kg/m3
100 kPa, x1 = 0.4198
  mass density: 1083.92 ± 0.54 kg/m3
100 kPa, x1 = 0.4847
  mass density: 1106.62 ± 0.57 kg/m3
100 kPa, x1 = 0.5713
  mass density: 1132.56 ± 0.62 kg/m3
100 kPa, x1 = 0.6827
  mass density: 1159.67 ± 0.66 kg/m3
100 kPa, x1 = 0.7919
  mass density: 1181.63 ± 0.7 kg/m3
100 kPa, x1 = 0.9317
  mass density: 1203.54 ± 0.74 kg/m3
2500 kPa, x1 = 0.05056
  mass density: 829.15 ± 0.78 kg/m3
2500 kPa, x1 = 0.103
  mass density: 887.83 ± 0.65 kg/m3
2500 kPa, x1 = 0.1247
  mass density: 909.17 ± 0.61 kg/m3
2500 kPa, x1 = 0.2126
  mass density: 978.86 ± 0.48 kg/m3
2500 kPa, x1 = 0.2919
  mass density: 1027.68 ± 0.49 kg/m3
2500 kPa, x1 = 0.3185
  mass density: 1041.25 ± 0.5 kg/m3
2500 kPa, x1 = 0.4198
  mass density: 1085.39 ± 0.57 kg/m3
2500 kPa, x1 = 0.4847
  mass density: 1107.91 ± 0.62 kg/m3
2500 kPa, x1 = 0.5713
  mass density: 1133.8 ± 0.7 kg/m3
2500 kPa, x1 = 0.6827
  mass density: 1160.86 ± 0.73 kg/m3
2500 kPa, x1 = 0.7919
  mass density: 1182.51 ± 0.78 kg/m3
2500 kPa, x1 = 0.9317
  mass density: 1204.68 ± 0.84 kg/m3
5000 kPa, x1 = 0.05056
  mass density: 831.49 ± 0.84 kg/m3
5000 kPa, x1 = 0.103
  mass density: 889.93 ± 0.69 kg/m3
5000 kPa, x1 = 0.1247
  mass density: 911.19 ± 0.64 kg/m3
5000 kPa, x1 = 0.2126
  mass density: 980.64 ± 0.49 kg/m3
5000 kPa, x1 = 0.2919
  mass density: 1029.31 ± 0.5 kg/m3
5000 kPa, x1 = 0.3185
  mass density: 1042.83 ± 0.51 kg/m3
5000 kPa, x1 = 0.4198
  mass density: 1086.84 ± 0.61 kg/m3
5000 kPa, x1 = 0.4847
  mass density: 1109.29 ± 0.66 kg/m3
5000 kPa, x1 = 0.5713
  mass density: 1135.1 ± 0.7 kg/m3
5000 kPa, x1 = 0.6827
  mass density: 1162.12 ± 0.81 kg/m3
5000 kPa, x1 = 0.7919
  mass density: 1183.7 ± 0.9 kg/m3
5000 kPa, x1 = 0.9317
  mass density: 1205.83 ± 0.94 kg/m3
10000 kPa, x1 = 0.05056
  mass density: 835.97 ± 0.98 kg/m3
10000 kPa, x1 = 0.103
  mass density: 893.99 ± 0.77 kg/m3
10000 kPa, x1 = 0.1247
  mass density: 915.1 ± 0.7 kg/m3
10000 kPa, x1 = 0.2126
  mass density: 984.14 ± 0.49 kg/m3
10000 kPa, x1 = 0.2919
  mass density: 1032.48 ± 0.52 kg/m3
10000 kPa, x1 = 0.3185
  mass density: 1045.92 ± 0.55 kg/m3
10000 kPa, x1 = 0.4198
  mass density: 1089.7 ± 0.7 kg/m3
10000 kPa, x1 = 0.4847
  mass density: 1112.04 ± 0.77 kg/m3
10000 kPa, x1 = 0.5713
  mass density: 1137.7 ± 0.9 kg/m3
10000 kPa, x1 = 0.6827
  mass density: 1164.6 ± 1 kg/m3
10000 kPa, x1 = 0.7919
  mass density: 1186.07 ± 1.1 kg/m3
10000 kPa, x1 = 0.9317
  mass density: 1208.1 ± 1.2 kg/m3
15000 kPa, x1 = 0.05056
  mass density: 840.22 ± 1.1 kg/m3
15000 kPa, x1 = 0.103
  mass density: 897.89 ± 0.85 kg/m3
15000 kPa, x1 = 0.1247
  mass density: 918.84 ± 0.75 kg/m3
15000 kPa, x1 = 0.2126
  mass density: 987.5 ± 0.5 kg/m3
15000 kPa, x1 = 0.2919
  mass density: 1035.56 ± 0.55 kg/m3
15000 kPa, x1 = 0.3185
  mass density: 1048.93 ± 0.6 kg/m3
15000 kPa, x1 = 0.4198
  mass density: 1092.49 ± 0.78 kg/m3
15000 kPa, x1 = 0.4847
  mass density: 1114.72 ± 0.89 kg/m3
15000 kPa, x1 = 0.5713
  mass density: 1140.25 ± 1 kg/m3
15000 kPa, x1 = 0.6827
  mass density: 1167.03 ± 1.2 kg/m3
15000 kPa, x1 = 0.7919
  mass density: 1188.4 ± 1.3 kg/m3
15000 kPa, x1 = 0.9317
  mass density: 1210.35 ± 1.4 kg/m3
20000 kPa, x1 = 0.05056
  mass density: 844.27 ± 1.3 kg/m3
20000 kPa, x1 = 0.103
  mass density: 901.61 ± 0.92 kg/m3
20000 kPa, x1 = 0.1247
  mass density: 922.44 ± 0.8 kg/m3
20000 kPa, x1 = 0.2126
  mass density: 990.73 ± 0.48 kg/m3
20000 kPa, x1 = 0.2919
  mass density: 1038.53 ± 0.59 kg/m3
20000 kPa, x1 = 0.3185
  mass density: 1051.83 ± 0.65 kg/m3
20000 kPa, x1 = 0.4198
  mass density: 1095.2 ± 0.9 kg/m3
20000 kPa, x1 = 0.4847
  mass density: 1117.29 ± 1 kg/m3
20000 kPa, x1 = 0.5713
  mass density: 1142.73 ± 1.2 kg/m3
20000 kPa, x1 = 0.6827
  mass density: 1169.4 ± 1.4 kg/m3
20000 kPa, x1 = 0.7919
  mass density: 1190.67 ± 1.5 kg/m3
20000 kPa, x1 = 0.9317
  mass density: 1212.54 ± 1.7 kg/m3
25000 kPa, x1 = 0.05056
  mass density: 848.14 ± 1.4 kg/m3
25000 kPa, x1 = 0.103
  mass density: 905.17 ± 0.99 kg/m3
25000 kPa, x1 = 0.1247
  mass density: 925.91 ± 0.85 kg/m3
25000 kPa, x1 = 0.2126
  mass density: 993.88 ± 0.48 kg/m3
25000 kPa, x1 = 0.2919
  mass density: 1041.42 ± 0.64 kg/m3
25000 kPa, x1 = 0.3185
  mass density: 1054.66 ± 0.71 kg/m3
25000 kPa, x1 = 0.4198
  mass density: 1097.84 ± 0.99 kg/m3
25000 kPa, x1 = 0.4847
  mass density: 1119.85 ± 1.2 kg/m3
25000 kPa, x1 = 0.5713
  mass density: 1145.17 ± 1.4 kg/m3
25000 kPa, x1 = 0.6827
  mass density: 1171.73 ± 1.6 kg/m3
25000 kPa, x1 = 0.7919
  mass density: 1192.91 ± 1.8 kg/m3
25000 kPa, x1 = 0.9317
  mass density: 1214.7 ± 2 kg/m3
30000 kPa, x1 = 0.05056
  mass density: 851.85 ± 1.6 kg/m3
30000 kPa, x1 = 0.103
  mass density: 908.61 ± 1.1 kg/m3
30000 kPa, x1 = 0.1247
  mass density: 929.24 ± 0.89 kg/m3
30000 kPa, x1 = 0.2126
  mass density: 996.92 ± 0.47 kg/m3
30000 kPa, x1 = 0.2919
  mass density: 1044.25 ± 0.69 kg/m3
30000 kPa, x1 = 0.3185
  mass density: 1057.43 ± 0.78 kg/m3
30000 kPa, x1 = 0.4198
  mass density: 1100.42 ± 1.1 kg/m3
30000 kPa, x1 = 0.4847
  mass density: 1122.34 ± 1.3 kg/m3
30000 kPa, x1 = 0.5713
  mass density: 1147.56 ± 1.6 kg/m3
30000 kPa, x1 = 0.6827
  mass density: 1174 ± 2 kg/m3
30000 kPa, x1 = 0.7919
  mass density: 1195.12 ± 2 kg/m3
30000 kPa, x1 = 0.9317
  mass density: 1216.82 ± 2.2 kg/m3
35000 kPa, x1 = 0.05056
  mass density: 855.41 ± 1.7 kg/m3
35000 kPa, x1 = 0.103
  mass density: 911.93 ± 1.1 kg/m3
35000 kPa, x1 = 0.1247
  mass density: 932.47 ± 0.93 kg/m3
35000 kPa, x1 = 0.2126
  mass density: 999.88 ± 0.46 kg/m3
35000 kPa, x1 = 0.2919
  mass density: 1046.98 ± 0.75 kg/m3
35000 kPa, x1 = 0.3185
  mass density: 1060.13 ± 0.85 kg/m3
35000 kPa, x1 = 0.4198
  mass density: 1102.94 ± 1.3 kg/m3
35000 kPa, x1 = 0.4847
  mass density: 1124.77 ± 1.5 kg/m3
35000 kPa, x1 = 0.5713
  mass density: 1149.9 ± 1.8 kg/m3
35000 kPa, x1 = 0.6827
  mass density: 1176.25 ± 2 kg/m3
35000 kPa, x1 = 0.7919
  mass density: 1197.28 ± 2.3 kg/m3
35000 kPa, x1 = 0.9317
  mass density: 1218.92 ± 2.5 kg/m3
